Reference: ChEMBL document CHEMBL4177682, “Indirubin derivatives protect against endoplasmic reticulum stress-induced cytotoxicity and down-regulate CHOP levels in HT22 cells” (Bioorg Med Chem Lett, 2017)
Active and inactive are the calls of the source. The rule behind the calls is not given here.

Experiments:
[1] = test system: HT-22; experiment: Effect on CHOP expression in mouse HT22 cells at 20 uM after 12 hrs by Western blot analysis; assay type: cell-based; conditions: ht-22, 12 h
[2] = test system: HT-22; experiment: Suppression of TM-induced increase in CHOP expression in mouse HT22 cells at 20 uM after 12 hrs by Western blot analysis; assay type: functional, cell-based
[3] = test system: HT-22; experiment: Cytotoxicity against mouse HT22 cells at 20 uM after 24 hrs by MTT assay; assay type: cell-based; conditions: ht-22, 24 h
[4] = test system: HT-22; experiment: Cytoprotective activity against tunicamycin-induced cell death in mouse HT22 cells assessed as preservation of spindle shape morphology after 24 hrs by MTT assay; assay type: functional, cell-based
[5] = test system: HT-22; experiment: Cytoprotective activity against tunicamycin-induced cell death in mouse HT22 cells at 20 uM after 24 hrs by MTT assay; assay type: functional, cell-based
[6] = test system: HT-22; experiment: Cytoprotective activity against tunicamycin-induced cell death in mouse HT22 cells after 24 hrs by MTT assay; assay type: functional, cell-based; conditions: for EC50: HT-22, 24 h

COc1ccc2c(c1)C(=O)/C(=C1/C(=O)Nc3ccc(OC)cc31)N2
Activity [1]: Non-Toxic | Activity [2]: Active | Activity [3]: Non-Toxic | Activity [4]: Active | Activity [5]: Active | Activity [6]: Dose-dependent effect | EC50 [6]: 30 µM

CN1C(=O)/C(=C2\Nc3ccccc3C2=O)c2ccc(Br)cc21
Activity [5]: inactive

Cc1ccc2c(c1)/C(=C1/Nc3ccccc3C1=O)C(=O)N2
Activity [1]: Non-Toxic | Activity [2]: Active | Activity [3]: Non-Toxic | Activity [4]: Active | Activity [5]: Active | Activity [6]: Dose-dependent effect | EC50 [6]: 30.8 µM

CCc1ccc2c(c1)/C(=C1/Nc3ccccc3C1=O)C(=O)N2
Activity [6]: Dose-dependent effect

COc1ccc2c(c1)N/C(=C1\C(=O)Nc3ccccc31)C2=O
Activity [6]: Dose-dependent effect

O=C1Nc2ccc(Br)cc2/C1=C1/Nc2ccccc2C1=O
Activity [1]: Non-Toxic | Activity [2]: Active | Activity [3]: Non-Toxic | Activity [4]: Active | Activity [5]: Active | Activity [6]: Dose-dependent effect | EC50 [6]: 36 µM

COc1ccc2c(c1)C(=O)/C(=C1/C(=O)Nc3ccccc31)N2
Activity [6]: Dose-dependent effect

O=C1Nc2ccccc2/C1=C1/Nc2cc(Br)ccc2C1=O
Activity [6]: Dose-dependent effect

COc1cccc2c1NC(=O)/C2=C1\Nc2ccccc2C1=O
Activity [6]: Dose-dependent effect

O=C1Nc2ccc(O)cc2/C1=C1/Nc2ccccc2C1=O
Activity [6]: Dose-dependent effect

O=C1Nc2ccccc2/C1=C1/Nc2ccccc2/C1=N\O
Activity [3]: Toxic | Activity [5]: Active | Activity [6]: Dose-dependent effect

CC(C)c1ccc2c(c1)/C(=C1/Nc3ccccc3/C1=N\O)C(=O)N2
Activity [5]: Active | Activity [6]: Dose-dependent effect

O=C1Nc2ccccc2/C1=C1/Nc2ccc(Br)cc2/C1=N\O
Activity [5]: Active | Activity [6]: Dose-dependent effect

O=C1Nc2ccccc2/C1=C1/Nc2ccc(Br)cc2C1=O
Activity [6]: Dose-dependent effect

CCc1ccc2c(c1)C(=O)/C(=C1/C(=O)Nc3ccccc31)N2
Activity [1]: Non-Toxic | Activity [2]: Active | Activity [3]: Non-Toxic | Activity [4]: Active | Activity [5]: Active | Activity [6]: Dose-dependent effect | EC50 [6]: 24.5 µM

O=C1Nc2ccc(Br)cc2/C1=C1/Nc2ccc(Br)cc2/C1=N\O
Activity [3]: Toxic | Activity [5]: Active | Activity [6]: Dose-dependent effect

O=C1Nc2cc(O)ccc2/C1=C1/Nc2ccccc2C1=O
Activity [1]: Non-Toxic | Activity [2]: Active | Activity [3]: Non-Toxic | Activity [4]: Active | Activity [5]: Active | Activity [6]: Dose-dependent effect | EC50 [6]: 23.7 µM

O=C1Nc2cc(Br)ccc2/C1=C1/Nc2ccccc2C1=O
Activity [5]: inactive

CN1C(=O)/C(=C2\Nc3ccccc3\C2=N/O)c2ccc(Br)cc21
Activity [5]: Active | Activity [6]: Dose-dependent effect

CCc1ccc2c(c1)/C(=C1/Nc3ccccc3/C1=N\O)C(=O)N2
Activity [5]: Active | Activity [6]: Dose-dependent effect

O=C1Nc2ccccc2/C1=C1/Nc2ccccc2/C1=N\OCC1CO1 (stereo not given)
Activity [6]: Dose-dependent effect

O=C1Nc2ccc(Br)cc2/C1=C1/Nc2ccccc2/C1=N\O [INDIRUBIN 2]
Activity [1]: Non-Toxic | Activity [2]: Active | Activity [3]: Non-Toxic | Activity [4]: Active | Activity [5]: Active | Activity [6]: Dose-dependent effect | EC50 [6]: 85.8 µM

COc1ccc2c(c1)NC(=O)/C2=C1\Nc2ccccc2\C1=N/O
Activity [5]: Active | Activity [6]: Dose-dependent effect

CC(C)(C)c1ccc2c(c1)/C(=C1/Nc3ccccc3C1=O)C(=O)N2
Activity [6]: Dose-dependent effect

Cc1ccc2c(c1)C(=O)/C(=C1/C(=O)Nc3ccccc31)N2
Activity [6]: Dose-dependent effect

COc1cc2c(cc1OC)/C(=C1/Nc3ccccc3C1=O)C(=O)N2
Activity [6]: Dose-dependent effect

CC(C)(C)c1ccc2c(c1)/C(=C1/Nc3ccccc3/C1=N\O)C(=O)N2
Activity [5]: Active | Activity [6]: Dose-dependent effect

O=C(O)Cc1ccc2c(c1)/C(=C1/Nc3ccccc3C1=O)C(=O)N2
Activity [6]: Dose-dependent effect

COc1cccc2c1NC(=O)/C2=C1\Nc2ccccc2\C1=N/O
Activity [5]: Active | Activity [6]: Dose-dependent effect

O=C1Nc2ccccc2/C1=C1/Nc2ccccc2C1=O [INDIRUBIN]
Activity [3]: Toxic | Activity [6]: Dose-dependent effect

COc1ccc2c(c1)/C(=C1/Nc3ccc(OC)cc3/C1=N\O)C(=O)N2
Activity [6]: Dose-dependent effect

O=C1Nc2ccc(Br)cc2/C1=C1/Nc2ccc(Br)cc2C1=O
Activity [1]: Non-Toxic | Activity [2]: Active | Activity [3]: Non-Toxic | Activity [4]: Active | Activity [5]: Active | Activity [6]: Dose-dependent effect | EC50 [6]: 21.3 µM

COc1cc2c(cc1OC)/C(=C1/Nc3ccccc3/C1=N\O)C(=O)N2
Activity [5]: Active | Activity [6]: Dose-dependent effect

O=C1Nc2c(Br)cccc2/C1=C1/Nc2ccccc2C1=O
Activity [5]: inactive

O=C1Nc2cc(Br)ccc2/C1=C1/Nc2ccccc2/C1=N\O [6BIO]
Activity [3]: Toxic | Activity [5]: inactive

CC(=O)N1C(=O)/C(=C2\Nc3ccccc3C2=O)c2ccccc21
Activity [1]: Non-Toxic | Activity [2]: Active | Activity [3]: Non-Toxic | Activity [4]: Active | Activity [5]: Active | Activity [6]: Dose-dependent effect | EC50 [6]: 9.8 µM

COc1ccc2c(c1)C(=N\O)/C(=C1/C(=O)Nc3ccccc31)N2
Activity [5]: Active | Activity [6]: Dose-dependent effect

COc1ccc2c(c1)/C(=C1/Nc3ccccc3C1=O)C(=O)N2
Activity [6]: Dose-dependent effect

COc1ccc2c(c1)/C(=C1/Nc3ccccc3/C1=N\O)C(=O)N2
Activity [5]: Active | Activity [6]: Dose-dependent effect

CC(C)c1ccc2c(c1)/C(=C1/Nc3ccccc3C1=O)C(=O)N2
Activity [6]: Dose-dependent effect

Cc1ccc2c(c1)/C(=C1/Nc3ccccc3/C1=N\O)C(=O)N2
Activity [5]: Active | Activity [6]: Dose-dependent effect

COc1ccc2c(c1)NC(=O)/C2=C1\Nc2ccccc2C1=O
Activity [6]: Dose-dependent effect

O=C1Nc2ccccc2/C1=C1/Nc2cc(Br)ccc2/C1=N\O
Activity [5]: Active | Activity [6]: Dose-dependent effect

O=C1Nc2c(O)cccc2/C1=C1/Nc2ccccc2C1=O
Activity [6]: Dose-dependent effect
